Consider eight compounds from patent US12337000B2, “Therapeutic modulators of the reverse mode of ATP synthase” (priority 2017, dated 2025).

Data set [1] relates to 59 cancer cell lines (NCI-60). Nature of the data set: NCI-60 one-dose in vitro assay. The following applies: for inhibition at 100 µM / inhibition at 10 µM: Homo sapiens; for inhibition at 10 µM: 48 hours, read-out: mean cancer growth inhibition, across all 59 cancer cell lines; for inhibition at 10 µM / anti-cancer activity (in words): 10 μM. The data set is classed as cell-based, human. From the text: FIGS. 1, 2, 3, 4, 5, 6, 7, 8 show results from the NCI-60 one-dose in vitro assay at the Developmental Therapeutics Program (DTP), at the National Cancer Institute (NCI, Bethesda, MD, USA). Its protocol is well known to those of the art, and it tests the effect, if any, of a test compound on the growth/survivability of a cancer cell line as compared to the no compound control. […] However, a constant is that there is always representative cell lines from leukemia, melanoma and cancers of the lung, colon, brain, ovary, breast, prostate and kidney. In a one-dose NCI compound test report, NCI report a number for each cell line, which they call “Growth Percent”, which is its growth relative to the no-compound control, and relative to the time zero number of cells. This reported parameter allows detection of both growth inhibition (values between 0 and 100) and lethality (values less than 0). For example, an NCI “Growth Percent” value of 100 means no growth inhibition. Value of 40 means 60% growth inhibition. Value of 0 means no net growth over the course of the experiment. Value of −40 means 60% lethality. Value of −100 means all cells are dead. I don't present NCI one-dose data in this original format. Instead, if the NCI “Growth Percent” value for a cell is positive, it is manipulated: [100 minus this original NCI-60 “Growth Percent” data point], to yield the percentage “Growth Inhibition”. If the original NCI “Growth Percent” value for a cell is negative, it is made positive to be the percentage of original cancer cells (at time zero) killed: “Percentage Killed” {and in these cases, of course, all growth has been inhibited, so percentage “Growth Inhibition” is then specified to be 100% for this cancer cell line}. In my one-dose figures, “Growth Inhibition” (0-100%) is presented on the x-axis and, if applicable, “Percentage Killed” (0-100%) further along on the x-axis. The latter is applicable when there is not just cancer growth inhibition but a reduction in the number of cancer cells from the start time i.e. when the compound is not merely slowing cancer growth, but is actively reducing the number of cancer cells from the starting number. In cases where there is only growth inhibition, only “Growth inhibition” is presented on the x-axis.
NCI-60 tests are performed at a controlled temperature of 37° C..
To perform the anti-cancer testing reported: BMS-199264 hydrochloride was purchased from Sigma-Aldrich. BTB06584 was purchased from AdooQ Bioscience, Irvine, CA, USA. Compounds 19a (separated into 6a and 6b stereoisomers) and 31 were synthesized by reaction schemes disclosed herein. Almitrine dimesylate was purchased from Ak Scientific, Palo Alto, CA, USA.

Data set [2] has as its system 59 different cancer cell lines (NCI-60). The experiment in a line: NCI-60 five-dose in vitro assay. The data set is classed as cell-based. The following applies: Homo sapiens, read-out: mean GI50 of all 59 cell lines. From the text: Results are from the NCI-60 five-dose in vitro assay at the Developmental Therapeutics Program (DTP), at the National Cancer Institute (NCI, Bethesda, MD, USA). […] These graphs are as outputted by the NCI but changed from colour to black and white. On the y-axis of each is the aforementioned “Growth Percent” parameter used by NCI, which is growth relative to the no-compound control, and relative to the time zero number of cells.

The next data set concerns the target T1, F1F0 ATP synthesis (Bos taurus, UniProt P00829+P19483).
T1 construct: are from sub-mitochondrial (SMP) studies in [5-8]; from tissue; host or cells: sub-mitochondrial particles (SMPs)
The note with it: SMP assays, [5-8]; cited from earlier work.

In a further data set the test system is ex vivo rat heart. The note with it: 10 μM [11]; cited from earlier work.
Data set [3] has as its target forward mode of ATP synthase (Homo sapiens, UniProt P06576+P25705+P48047). The following applies: [P4]; cited from earlier work.
The target in data set [4] is reverse mode of ATP synthase (Homo sapiens, UniProt P06576+P25705+P48047). The note with it: [P4]; cited from earlier work.
The next data set deals with T2, F1F0 ATP hydrolase (Bos taurus, UniProt P00829+P19483).
T2 construct: from tissue; host or cells: sub-mitochondrial particles (SMPs)
The note with it: cited from earlier work; for IC50: [5-6], read-out: IC50 reverse mode of ATP synthase.

A short description of data set [5]: In vivo mouse study of 6a and 6b, rectal temperature and survival at 22° C. room temperature. The note with it: for effect on rectal temperature (in words): in vivo, iv. Also noted: species or system Mus Musculus C57BL/6. How it is done:
FIG. 15. In vivo study of compounds 6a and 6b, conducted at 22° C. room temperature. METHODOLOGY: 4 mice were used and in the presented table “Day” refers to the number of days since the 1st drug/vehicle dose on Day 1. Some experimental details: intravenous (IV) administration (tail vein), dosing volume=10 μl/g, solution (not suspension), sterilised (0.22 μm filter) vortexed vehicle=12.5% solutol, 12.5% ethanol, 75% water, IV solutions freshly prepared before injection except on days 22 and 39 when solutions prepared on previous dosing days were used (sub-optimal), Female Mus Musculus C57BL/6 strain, 6-8 weeks old at study start, mice sourced from Shanghai Lingchang Bio-Technology Co. Ltd, mice were observed/quarantined for a few days after arrival and before dosing, ad libitum Co^60 irradiation sterilized dry granule food & reverse osmosis autoclaved water, corn cob bedding, polysulfone individually ventilated cage (IVC, containing up to 5 animals): 325 mm×210 mm×180 mm, 12 hour light/dark cycle, 40-70% humidity, 20-26° C. room temperature, StudyDirector™ software (Studylog Systems, Inc. CA, USA) used to allocate/randomize control/treatment groups, animals marked by ear coding (notch), care and use of animals in accordance with the regulations of the Association for Assessment and Accreditation of Laboratory Animal Care (AAALAC), when recording rectal temperature: care was taken to ensure constant depth of probe insertion across different recordings, time was afforded for rectal probe temperature to equilibrate with rectal temperature, and time was afforded between recordings for probe temperature to reset.

A short description of data set [6]: Enantiomeric excess (ee) stability experiments. Format: physicochemical. The following applies: FIG. 16. From the text: FIG. 16. The enantiomeric excess (ee) of 6a and 6b is […] in presented ee stability experiments. […] This ee instability in biological media is an unexpected result. This finding is componentry to the invention of this disclosure, as are any modifications to the structure of 6a or 6b to slow their ee erosion due to epimerization/racemization. The ee instability is unexpected because it runs contrary to theory. The 2nd order rate constant (kgb) for general-base catalysed racemization can be predicted for 6a and 6b by theory from (and its supplementary information, all incorporated by reference). Joined to the stereogenic carbon of 6a and 6b there is a phenyl group, alkyl and a guanidine group: ΣΔΔG(R1,R2,R3)=[…]=−36.2 kcal/mol. The value for the guanidine group (19.1) is not from but from one of its authors, Dr. Andrew Leach, by personal communication, who sourced it by quantum mechanical calculation with the Gaussian 03 software package. The cross-conjugation correction was not applied in this case because Dr. Leach wrote “I would not expect guanidine to be a conjugating group”. log(kgb)=−0.11*ΣΔΔG(R1,R2,R3)−9.81, ∴Kgb=0.00000148593 M^−1s^−1. This is not particularly fast. Racemization might occur faster for 6a and 6b in cells than predicted by theory because their high lipophibicity concentrates them in biological membranes. […]

For data set [7], the system named is 59 cancer cell lines (NCI-60). The note with it: 10 μM, NCI-60 one-dose, NSC: 760347 in [16], cited from earlier work.
The nature of data set [8]: Human pharmacokinetics of oral almitrine dimesylate. The note with it: human, plasma; single 200 mg oral dose, humans [121]; read-out: mean cmax plasma concentration. Format: in vivo.
For data set [9] the following is noted: mice, intraperitoneal injection (IP); cited from earlier work.
For data set [10] the following is noted: cited from earlier work.
Data set [11] deals with 59 different cancer cell lines (NCI-60). The note with it: NCI-60 five-dose, from Table 1 of [30]; cited from earlier work.
For data set [12] the following is noted: 1.9 g/kg intraperitoneal, 24.5 to 25° C. ambient temperature [100]; cited from earlier work.
Where [13] appears, read: read-out: median cancer growth inhibition.

Molecules are shown by their SMILES. “Also recorded” adds a separate entry of the source. Read-outs that look alike come from different tables or passages of the source.

Turning to `CC1(C)Oc2ccc(S(=O)(=O)N3CCCCC3)cc2[C@@H](N(Cc2ncc[nH]2)c2ccc(Cl)cc2)[C@@H]1O` [BMS-199264], the inhibition at 100 µM in [1] (read-out: Mean % cancer growth inhibition) was > 100%. The GI50 in data set [2] turned out to be 3.9 µM. For the same compound, at F1F0 ATP synthesis, the EC50 is 18 µM. Moreover, the “harm to normal cells (ex vivo rat heart)” value with ex vivo rat heart is listed as “doesn't harm; also recorded: does not harm”.

`CN1C(=O)C(Cc2ccc3ccccc3c2)N=C(c2ccc(O)cc2)c2cc(Cl)ccc21` (stereo not shown) [Bz-423]: the EC50 is 5.5 µM in [3] and 8.9 µM in data set [4].

On to `N#Cc1cccc(C(=O)/N=C(\Nc2ccc(Cl)cc2)N[C@@H](Cn2ccnc2)c2ccc(Cl)cc2Cl)c1` [Compound 6a], for which the EC50 on F1F0 ATP hydrolase (SMP studies in [5-8], read-out: EC50 F1F0 ATP hydrolysis / hydrolase) was > 100 µM. At F1F0 ATP hydrolase, the IC50 is > 100 µM. For the same compound, the inhibition at 10 µM in [1] is 57%. In addition, in [1] (setting [13]), the inhibition at 100 µM was > 79%. For the same compound, the LD50 in data set [5] (female, C57BL/6, in vivo, mouse, IV) is > 40 mg/kg. In addition, the “effect on rectal temperature (in words)” value in [5] (mouse) was “does not”. For the same compound, in [2], the concentration for 50% growth inhibition (GI50) was determined as 0.666 µM. For the same compound, in [6], the “enantiomeric excess (ee) stability” value was “stable”.

For the compound `N#Cc1cccc(C(=O)/N=C(\Nc2ccc(Cl)cc2)N[C@H](Cn2ccnc2)c2ccc(Cl)cc2Cl)c1` [Compound 6b], on F1F0 ATP hydrolase, the IC50 is 0.018 µM. Further, the inhibition at 10 µM in data set [1] is 66%. For the same compound, in data set [1] (setting [13]), the inhibition at 100 µM is > 79%. Moreover, the “time to death after IV injection” value in data set [5] (20 mg/kg IV) is ~210 min. The “survival time after IV injection” value in data set [5] (40 mg/kg IV, found dead the next day) is > 6 h. Besides, in data set [5] (mouse), the “effect on rectal temperature (in words)” value is given as “potently reduces rectal temperature”. Moreover, the GI50 in [2] was 0.446 µM. In addition, the “enantiomeric excess (ee) stability” value in data set [6] is recorded as “stable”.

Consider `CCN1CC(CCN2CCOCC2)C(c2ccccc2)(c2ccccc2)C1=O` (stereo not shown) [Doxapram], for which the “median % cancer growth inhibition” value in data set [7] is −2.3%. Further, the “mean % cancer growth inhibition” value in [7] (negative = growth promotion) is listed as −3.7%.

As to `C=CCNc1nc(NCC=C)nc(N2CCN(C(c3ccc(F)cc3)c3ccc(F)cc3)CC2)n1.CS(=O)(=O)O` [almitrine dimesylate, 6-[4-[bis(4-fluorophenyl)methyl]piperazin-1-yl]-2-N,4-N-bis(prop-2-enyl)-1,3,5-triazine-2,4-diamine methanesulfonic acid], the results for the “anti-cancer activity (in words)” value in data set [1] and in data set [1] (listed as almitrine dismesylate) were “Anti-cancer activity” and “greater anti-cancer activity than carboplatin”, respectively. For the same compound, the Cmax in data set [8] was determined as 600 nM. For the same compound, the LD50 in data set [9] is 370 mg/kg. Besides, in data set [10] (24 hours after 200 mg oral dose [121]), the “plasma [almitrine]” value was ~50 ng/mL. In addition, the oral bioavailability in data set [10] (humans [121]) is reported as 70%. The “mean cmax plasma concentration” value in data set [10] (single 150 mg oral dose, humans [123]) is 379 ng/mL; in [10] (single 200 mg oral dose, humans [121]) it was 286 ng/mL.

`N.N.[Cl][Pt][Cl]` [cisplatin]: the GI50 in [11] was 1.4 µM.

For `CCO` [ethanol], the “reduction of body temperature” value in data set [12] was 1.6 °C.

For orientation: inhibition means the relative decrease from the control value, in per cent. In general, GI50 refers to the concentration that inhibits growth by half. What is called IC50 is the concentration needed to halve the response being measured. As a reminder, the LD50 is the dose at which mortality reaches 50%.
